Measurements taken from EPA's ToxRefDB 2.

What was measured:
rat [1] = details: Acute oral toxicity, wistar, Gavage/Intubation, dose end: 7 day, group: systemic, systemic / clinical chemistry / calcium / calcium + systemic / urinalysis / calcium / calcium
rat [2] = details: Prenatal developmental toxicity study, fischer, Oral, Gavage/Intubation, dose end: 10 GD
rat [3] = details: Prenatal developmental toxicity study, sprague dawley, Oral, Gavage/Intubation, dose end: 17 GD
rabbit = details: Prenatal developmental toxicity study, new zealand white, Oral, Gavage/Intubation, dose end: 19 GD
rat [4] = details: Prenatal developmental toxicity study, wistar, Oral, Gavage/Intubation, dose end: 10 GD
rat [5] = details: Prenatal developmental toxicity study, sprague dawley, Oral, Gavage/Intubation, dose end: 20 GD
mouse [6] = details: Subchronic oral toxicity in rodents, other, Gavage/Intubation, dose end: 13 week, group: systemic, systemic / clinical chemistry / alanine aminotransferase (alt/sgpt) / alanine aminotransferase (alt/sgpt) + systemic / clinical chemistry / …
mouse [7] = details: Combined chronic toxicity/carcinogenicity, b6c3f1, Oral, Gavage/Intubation, dose end: 105 week, group: systemic
mouse [8] = details: Subchronic oral toxicity in rodents, b6c3f1, Gavage/Intubation, dose end: 14 week, group: systemic
rat [9] = details: Subchronic oral toxicity in rodents, fischer, Water, dose end: 93 day
rat [10] = details: Prenatal developmental toxicity study; sprague dawley; Oral; Gavage/Intubation; dose end: 20 GD; group: maternal; systemic / in life observation / body weight / body weight gain
rat [11] = details: Combined chronic toxicity/carcinogenicity, fischer, Oral, Water, dose end: 24 month, group: systemic
rat [12] = details: Developmental neurotoxicity study; wistar; Oral; Gavage/Intubation; dose end: 91 PND; group: cannot be grouped; systemic / in life observation / body weight / body weight + systemic / in life observation / body weight / body weight gain + systemic / in…
mouse [13] = details: Prenatal developmental toxicity study, cd1, Oral, Gavage/Intubation, dose end: 17 GD
rat [14] = details: Developmental neurotoxicity study, fischer, Oral, Gavage/Intubation, dose end: 22 PND, group: cannot be grouped
rat [15] = details: Neurotoxicity screening battery; long evans; Injection; Intraperitoneal; dose end: 13 week; group: cannot be grouped; systemic / in life observation / clinical signs / abnormal gait + systemic / in life observation / clinical signs / irritability + systemic…
mouse [16] = details: Multigenerational reproductive toxicity study, cd1, Oral, Water, dose end: 2 generation
rat [17] = details: Developmental neurotoxicity study; sprague dawley; Oral; Gavage/Intubation; dose end: 77 PND; group: cannot be grouped; systemic / in life observation / body weight / body weight
[18] = group: developmental, developmental / developmental malformation / bone / [other] + developmental / developmental malformation / general / crown-rump length + …
[19] = group: maternal, reproductive / reproductive performance / resorptions / resorptions + reproductive / offspring survival early / dead fetuses / dead fetuses…
[20] = group: developmental, developmental / developmental malformation / bone / [other] + developmental / developmental malformation / bone / kinked + developmental / …
[21] = group: developmental, developmental / developmental malformation / heart / [other] + developmental / developmental malformation / ureter / convoluted
[22] = group: maternal, reproductive / reproductive performance / postimplantation loss / postimplantation loss + reproductive / reproductive performance / …
[23] = group: maternal, systemic / organ weight / uterus / nos + reproductive / offspring survival early / live fetuses / live fetuses
[24] = group: developmental, systemic / in life observation / body weight / fetal weight
[25] = group: maternal, reproductive / reproductive performance / aborted / aborted + systemic / in life observation / body weight / body weight + systemic / in …
[26] = group: developmental, developmental / developmental malformation / bone / [other] + developmental / developmental malformation / bone / incomplete ossification + …
[27] = group: maternal, reproductive / reproductive performance / resorptions / resorptions + reproductive / offspring survival early / dead fetuses / dead fetuses
[28] = group: developmental, developmental / developmental malformation / bone / [other] + developmental / developmental malformation / bone / fused + developmental / …
[29] = group: maternal, reproductive / reproductive performance / postimplantation loss / postimplantation loss + systemic / in life observation / body weight / …
[30] = group: maternal, systemic / in life observation / body weight / body weight gain
[31] = systemic / pathology microscopic / ovary / atrophy + systemic / pathology microscopic / ovary / cyst + systemic / pathology microscopic / …
[32] = systemic / pathology microscopic / ovary / cyst + systemic / pathology microscopic / harderian gland / adenoma
[33] = systemic / hematology / erythrocyte (rbc) count differential / erythrocyte (rbc) + systemic / hematology / hematocrit (hct) / hematocrit (…
[34] = systemic / hematology / hemoglobin (hgb) / hemoglobin (hgb)
[35] = group: cholinesterase, cholinesterase / cholinesterase / cholinesterase / cholinesterase (che)
[36] = group: systemic, systemic / clinical chemistry / alkaline phosphatase (alp/alk) / alkaline phosphatase (alp/alk) + systemic / hematology / erythrocyte (rbc) …
[37] = systemic / pathology microscopic / testes / mesothelioma nos + systemic / pathology microscopic / brain / astrocytoma nos + systemic / …
[38] = group: maternal, systemic / in life observation / body weight / body weight gain + systemic / in life observation / clinical signs / splayed hindlimbs + …
[39] = systemic / in life observation / body weight / offspring (pup) weight + reproductive / reproductive performance / pregnancy index / …
[40] = group: parental, systemic / in life observation / body weight / body weight + systemic / organ weight / adrenal gland / absolute + systemic / organ weight / …
[41] = group: reproductive, reproductive / offspring survival early / live fetuses / live fetuses

CC(=O)Oc1ccccc1C(=O)O [Aspirin]
LEL (rat [1]): 100 mg/kg/day | LOAEL (rat [1]): > 100 mg/kg/day | NEL (rat [1]): < 100 mg/kg/day | NOAEL (rat [1]): ≥ 100 mg/kg/day | LEL (rat [2]; [18]): 500 mg/kg/day | LOAEL (rat [2]; [18]): > 625 mg/kg/day | NEL (rat [2]; [18]): < 500 mg/kg/day | NOAEL (rat [2]; [18]): ≥ 625 mg/kg/day | NEL (rat [2]; group: maternal, reproductive / reproductive performance / resorptions / resorptions): 500 mg/kg/day | LEL (rat [2]; [19]): 625 mg/kg/day | LOAEL (rat [2]; [19]): > 625 mg/kg/day | NOAEL (rat [2]; [19]): ≥ 625 mg/kg/day | LOAEL (rat [3]; [20]): > 1000 mg/kg/day | NOAEL (rat [3]; [20]): ≥ 1000 mg/kg/day | LEL (rat [3]; [21]): 50 mg/kg/day | NEL (rat [3]; [21]): < 50 mg/kg/day | LOAEL (rat [3]; [22]): > 1000 mg/kg/day | NOAEL (rat [3]; [22]): ≥ 1000 mg/kg/day | LEL (rat [3]; [23]): 50 mg/kg/day | NEL (rat [3]; [23]): < 50 mg/kg/day | LEL (rabbit; [24]): 350 mg/kg/day | LOAEL (rabbit; [24]): > 350 mg/kg/day | NEL (rabbit; [24]): 250 mg/kg/day | NOAEL (rabbit; [24]): ≥ 350 mg/kg/day | LOAEL (rabbit; [25]): > 350 mg/kg/day | NEL (rabbit; [25]): 125 mg/kg/day | NOAEL (rabbit; [25]): ≥ 350 mg/kg/day | LEL (rabbit; group: maternal, systemic / in life observation / body weight / body weight gain + systemic / in life observation / clinical signs / defecation (diarrhea) + …): 250 mg/kg/day | LEL (rat [4]; [26]): 500 mg/kg/day | LOAEL (rat [4]; [26]): > 500 mg/kg/day | NEL (rat [4]; [26]): < 500 mg/kg/day | NOAEL (rat [4]; [26]): ≥ 500 mg/kg/day | LEL (rat [4]; [27]): 500 mg/kg/day | LOAEL (rat [4]; [27]): > 500 mg/kg/day | NEL (rat [4]; [27]): < 500 mg/kg/day | NOAEL (rat [4]; [27]): ≥ 500 mg/kg/day

CC[C@H](C)C(=O)O[C@H]1C[C@@H](C)C=C2C=C[C@H](C)[C@H](CC[C@@H]3C[C@@H](O)CC(=O)O3)[C@H]21 [Lovastatin]
LOAEL (rat [5]; [28]): > 800 mg/kg/day | NOAEL (rat [5]; [28]): ≥ 800 mg/kg/day | LEL (rat [5]; [24]): 100 mg/kg/day | NEL (rat [5]; [24]): < 100 mg/kg/day | LOAEL (rat [5]; [29]): > 800 mg/kg/day | NOAEL (rat [5]; [29]): ≥ 800 mg/kg/day | LEL (rat [5]; [30]): 100 mg/kg/day | NEL (rat [5]; [30]): < 100 mg/kg/day | LEL (mouse [6]): 30 mg/kg/day | LOAEL (mouse [6]): > 30 mg/kg/day | NEL (mouse [6]): < 30 mg/kg/day | NOAEL (mouse [6]): ≥ 30 mg/kg/day

C=CC#N [Acrylonitrile]
LOAEL (mouse [7]; [31]): 10 mg/kg/day | NOAEL (mouse [7]; [31]): 2.5 mg/kg/day | LEL (mouse [7]; [32]): 2.5 mg/kg/day | NEL (mouse [7]; [32]): < 2.5 mg/kg/day | LOAEL (mouse [8]; [33]): > 60 mg/kg/day | NOAEL (mouse [8]; [33]): ≥ 60 mg/kg/day | LEL (mouse [8]; [34]): 5 mg/kg/day | NEL (mouse [8]; [34]): < 5 mg/kg/day

C=CC(N)=O [Acrylamide]
LEL (rat [9]; [35]): 20 mg/kg/day | LOAEL (rat [9]; [35]): > 20 mg/kg/day | NEL (rat [9]; [35]): 5 mg/kg/day | NOAEL (rat [9]; [35]): ≥ 20 mg/kg/day | LOAEL (rat [9]; [36]): > 20 mg/kg/day | NOAEL (rat [9]; [36]): ≥ 20 mg/kg/day | NEL (rat [9]; group: systemic, systemic / hematology / erythrocyte (rbc) count differential / erythrocyte (rbc) + systemic / hematology / hematocrit (hct) / hematocrit (…): 0.2 mg/kg/day | LEL (rat [9]; group: systemic, systemic / pathology microscopic / nerve / [other]): 1 mg/kg/day | LEL (rat [10]): 7.5 mg/kg/day | LOAEL (rat [10]): 7.5 mg/kg/day | NEL (rat [10]): 2.5 mg/kg/day | NOAEL (rat [10]): 2.5 mg/kg/day | LEL (rat [11]; systemic / pathology microscopic / testes / mesothelioma nos): 0.1 mg/kg/day | LOAEL (rat [11]; [37]): > 2 mg/kg/day | NEL (rat [11]; [37]): 0.01 mg/kg/day | NOAEL (rat [11]; [37]): ≥ 2 mg/kg/day | LEL (rat [12]): 25 mg/kg/day | LOAEL (rat [12]): > 25 mg/kg/day | NEL (rat [12]): < 25 mg/kg/day | NOAEL (rat [12]): ≥ 25 mg/kg/day | LEL (mouse [13]; [24]): 45 mg/kg/day | LOAEL (mouse [13]; [24]): > 45 mg/kg/day | NEL (mouse [13]; [24]): 15 mg/kg/day | NOAEL (mouse [13]; [24]): ≥ 45 mg/kg/day | LOAEL (mouse [13]; [38]): > 45 mg/kg/day | NEL (mouse [13]; [38]): 3 mg/kg/day | NOAEL (mouse [13]; [38]): ≥ 45 mg/kg/day | LEL (mouse [13]; group: maternal, systemic / organ weight / uterus / nos): 15 mg/kg/day | LEL (rat [14]; systemic / in life observation / body weight / offspring (pup) weight): 1 mg/kg/day | NEL (rat [14]; systemic / in life observation / body weight / offspring (pup) weight + developmental / developmental landmark / pinna unfolding / pinna …): 0.5 mg/kg/day | LOAEL (rat [14]; [39]): > 10 mg/kg/day | NOAEL (rat [14]; [39]): ≥ 10 mg/kg/day | LEL (rat [15]): 1 mg/kg/day | LOAEL (rat [15]): > 12 mg/kg/day | NEL (rat [15]): < 1 mg/kg/day | NOAEL (rat [15]): ≥ 12 mg/kg/day | LOAEL (mouse [16]; [40]): > 7.7 mg/kg/day | NEL (mouse [16]; [40]): 0.86 mg/kg/day | NOAEL (mouse [16]; [40]): ≥ 7.7 mg/kg/day | LEL (mouse [16]; group: parental, systemic / organ weight / adrenal gland / absolute + systemic / organ weight / kidney / absolute + systemic / organ weight / liver / …): 2.9 mg/kg/day | LEL (mouse [16]; [41]): 7.7 mg/kg/day | LOAEL (mouse [16]; [41]): > 7.7 mg/kg/day | NOAEL (mouse [16]; [41]): ≥ 7.7 mg/kg/day | LEL (rat [17]): 5 mg/kg/day | LOAEL (rat [17]): 5 mg/kg/day | NEL (rat [17]): < 5 mg/kg/day | NOAEL (rat [17]): < 5 mg/kg/day
